Reference: ChEMBL document CHEMBL1140063, “Synthesis and biological evaluation of 2-amino-3-(4-chlorobenzoyl)-4-[N-(substituted) piperazin-1-yl]thiophenes as potent allosteric enhancers of the A1 adenosine receptor” (J Med Chem, 2008)

Tests used:
[1] = molecular target: T1, Adenosine receptor A1 (Homo sapiens) (UniProt P30542); test: Activity at human recombinant adenosine A1 receptor expressed in CHO cells assessed as cAMP level at 0.01 uM; format: functional, cell-based
T1 sequence (whole entry): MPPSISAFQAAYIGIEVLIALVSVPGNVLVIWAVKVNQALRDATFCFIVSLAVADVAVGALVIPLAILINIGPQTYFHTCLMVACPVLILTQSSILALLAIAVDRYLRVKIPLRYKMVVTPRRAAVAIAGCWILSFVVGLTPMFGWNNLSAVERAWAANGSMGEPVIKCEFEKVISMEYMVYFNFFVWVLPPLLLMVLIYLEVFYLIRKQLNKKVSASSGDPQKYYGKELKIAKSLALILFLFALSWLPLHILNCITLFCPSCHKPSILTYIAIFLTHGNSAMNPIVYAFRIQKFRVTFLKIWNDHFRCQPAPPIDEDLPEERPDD

[2] = molecular target: T1, Adenosine receptor A1 (Homo sapiens); test: Activity at human recombinant adenosine A1 receptor expressed in CHO cells assessed as of cAMP level at 0.1 uM; format: functional, cell-based
[3] = molecular target: T1, Adenosine receptor A1 (Homo sapiens); test: Activity at human recombinant adenosine A1 receptor expressed in CHO cells assessed as cAMP level at 1 uM; format: functional, cell-based
[4] = molecular target: T1, Adenosine receptor A1 (Homo sapiens); test: Activity at human recombinant adenosine A1 receptor expressed in CHO cells assessed as cAMP level at 10 uM; format: functional, cell-based
[5] = molecular target: T1, Adenosine receptor A1 (Homo sapiens); test: Displacement of [3H]DPCPX from human adenosine A1 receptor expressed in CHO cells at 10 uM; format: cell-based
[6] = molecular target: Adenosine receptor A2a (Homo sapiens) (UniProt P29274); test: Displacement of [3H]ZM241385 from human adenosine A2A receptor expressed in CHO cells at 10 uM; format: cell-based
[7] = molecular target: T2, Adenosine receptor A3 (Homo sapiens) (UniProt P0DMS8); test: Displacement of [3H]MRE3008F20 from human adenosine A3 receptor expressed in CHO cells at 10 uM; format: cell-based
T2 sequence (whole entry): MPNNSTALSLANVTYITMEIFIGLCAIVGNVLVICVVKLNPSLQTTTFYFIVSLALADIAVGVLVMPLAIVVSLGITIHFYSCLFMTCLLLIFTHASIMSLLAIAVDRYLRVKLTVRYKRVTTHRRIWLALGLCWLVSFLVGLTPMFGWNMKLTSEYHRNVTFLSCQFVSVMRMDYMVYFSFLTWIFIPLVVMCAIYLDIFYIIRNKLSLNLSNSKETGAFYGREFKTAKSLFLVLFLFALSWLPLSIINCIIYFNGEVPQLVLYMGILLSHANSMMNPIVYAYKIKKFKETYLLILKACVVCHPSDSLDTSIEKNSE

Adenosine receptor A1 [8] = molecular target: T3, Adenosine receptor A1 (Homo sapiens, UniProt P30542); test: Displacement of [3H]CCPA from human adenosine A1 receptor expressed in CHO cells; format: cell-based
T3 sequence (P30542 whole entry): T1 sequence (whole entry)

[9] = molecular target: T1, Adenosine receptor A1 (Homo sapiens); test: Displacement of [3H]CCPA from human adenosine A1 receptor expressed in CHO cells assessed for per milligram of protein; format: cell-based
[10] = molecular target: T1, Adenosine receptor A1 (Homo sapiens); test: Displacement of [3H]CCPA from human adenosine A1 receptor expressed in CHO cells relative to untreated control; format: cell-based
Adenosine receptor A1 [11] = molecular target: T3, Adenosine receptor A1; test: Displacement of [3H]DPCPX from human adenosine A1 receptor expressed in CHO cells; format: cell-based
[12] = molecular target: T1, Adenosine receptor A1 (Homo sapiens); test: Displacement of [3H]DPCPX from human adenosine A1 receptor expressed in CHO cells assessed for per milligram of protein; format: cell-based
[13] = molecular target: T1, Adenosine receptor A1 (Homo sapiens); test: Displacement of [3H]DPCPX from human adenosine A1 receptor expressed in CHO cells relative to untreated control; format: cell-based
Adenosine receptor A1 [14] = molecular target: T4, Adenosine receptor A1 (Rattus norvegicus, UniProt P25099); test: Displacement of [3H]DPCPX from adenosine A1 receptor in rat membranes; format: cell membranes
T4 sequence (P25099 whole entry): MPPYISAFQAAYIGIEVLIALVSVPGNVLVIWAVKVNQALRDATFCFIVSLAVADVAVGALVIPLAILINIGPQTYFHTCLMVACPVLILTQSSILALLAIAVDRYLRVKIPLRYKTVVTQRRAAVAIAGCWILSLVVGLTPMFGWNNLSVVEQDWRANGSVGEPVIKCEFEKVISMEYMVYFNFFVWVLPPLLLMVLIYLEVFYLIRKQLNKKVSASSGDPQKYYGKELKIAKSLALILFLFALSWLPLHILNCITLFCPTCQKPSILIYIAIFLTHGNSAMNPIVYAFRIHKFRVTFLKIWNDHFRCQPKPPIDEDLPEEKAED

[15] = molecular target: T1, Adenosine receptor A1 (Homo sapiens); test: Displacement of [3H]DPCPX from human adenosine A1 receptor expressed in CHO cells at 100 uM; format: cell-based

Sequence of Adenosine receptor A2a (Homo sapiens) (P29274 whole entry): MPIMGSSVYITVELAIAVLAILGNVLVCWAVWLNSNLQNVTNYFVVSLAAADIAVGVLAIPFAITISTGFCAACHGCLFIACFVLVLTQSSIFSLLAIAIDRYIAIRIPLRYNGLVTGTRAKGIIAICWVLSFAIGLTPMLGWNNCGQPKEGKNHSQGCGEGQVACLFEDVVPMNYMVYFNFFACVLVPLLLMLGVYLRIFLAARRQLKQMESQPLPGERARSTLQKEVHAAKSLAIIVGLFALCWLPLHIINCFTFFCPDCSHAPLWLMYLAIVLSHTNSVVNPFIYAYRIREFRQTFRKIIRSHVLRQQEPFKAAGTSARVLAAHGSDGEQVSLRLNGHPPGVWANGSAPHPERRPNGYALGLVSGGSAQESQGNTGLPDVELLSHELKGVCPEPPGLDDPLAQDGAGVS

| Structure (SMILES) | Activity [1] [%] | Activity [2] [%] | Activity [3] [%] | Activity [4] [%] | Activity [5] [%] | Activity [6] [%] | Activity [7] [%] | Kd (Adenosine receptor A1 [8]) [nM] | Bmax [9] [fmol] | Activity [10] | Kd (Adenosine receptor A1 [11]) [nM] | Bmax [12] [fmol] | Activity [13] | Ki (Adenosine receptor A1 [14]) [nM] | Activity [15] [%] |
| --- | --- | --- | --- | --- | --- | --- | --- | --- | --- | --- | --- | --- | --- | --- | --- |
| Nc1scc(CN2CCN(c3ccc4c(c3)OCO4)CC2)c1C(=O)c1ccc(Cl)cc1 | 15 | 13 | 23 | 34 | 0 | 0 | 0 | 1.1 | 725 | 1.4 | 1.9 | 3190 | 0.9 |  |  |
| CN1CCN(Cc2csc(N)c2C(=O)c2ccc(Cl)cc2)CC1 | 3 | 3 | 1 | 16 | 3 | 0 | 0 | 1.2 | 570 | 1.1 | 1.7 | 2990 | 0.9 |  |  |
| Nc1scc(CN2CCN(c3ccccn3)CC2)c1C(=O)c1ccc(Cl)cc1 | 9 | 5 | 46 | 69 | 0 | 4 | 0 | 1.2 | 1810 | 3.5 | 1.7 | 3090 | 0.9 |  |  |
| Cc1ccc(N2CCN(Cc3csc(N)c3C(=O)c3ccc(Cl)cc3)CC2)cc1 | 10 | 3 | 22 | 66 | 0 | 0 | 0 | 1 | 2020 | 3.9 | 1.7 | 3060 | 0.9 |  |  |
| Nc1scc(CN2CCN(C3CCCCC3)CC2)c1C(=O)c1ccc(Cl)cc1 | 5 | 3 | 13 | 52 | 0 | 0 | 5 | 1.1 | 622 | 1.2 | 1.9 | 3200 | 0.9 |  |  |
| N#Cc1ccc(N2CCN(Cc3csc(N)c3C(=O)c3ccc(Cl)cc3)CC2)cc1 | 12 | 8 | 54 | 72 | 0 | 0 | 20 | 1.1 | 2490 | 4.8 | 1.8 | 3260 | 1 |  |  |
| Cc1sc(N)c(C(=O)c2cccc(C(F)(F)F)c2)c1C | 8 | 3 | 31 | 57 | 0 | 0 | 21 |  | 673 | 1.3 |  | 3340 |  | 11000 | 42 |
| Nc1scc(CN2CCN(c3ccccc3)CC2)c1C(=O)c1ccc(Cl)cc1 | 4 | 26 | 62 | 78 | 0 | 0 | 0 | 1 | 3370 | 6.5 | 1.9 | 3520 | 1 |  |  |
| Nc1scc(CN2CCN(c3ccc(F)cc3)CC2)c1C(=O)c1ccc(Cl)cc1 | 3 | 19 | 63 | 77 | 0 | 0 | 17 | 1 | 3470 | 6.7 | 1.8 | 3560 | 1.1 |  |  |
| Nc1scc(CN2CCN(c3ccc(Cl)cc3)CC2)c1C(=O)c1ccc(Cl)cc1 | 10 | 48 | 65 | 78 | 0 | 3 | 6 | 1.1 | 3630 | 7 | 1.8 | 3650 | 1.1 |  |  |
| Nc1scc(CN2CCN(Cc3ccccc3)CC2)c1C(=O)c1ccc(Cl)cc1 | 3 | 4 | 30 | 78 | 0 | 0 | 0 | 1.1 | 3160 | 6.1 | 1.7 | 3420 | 1 |  |  |
| Nc1scc(CN2CCN(c3ncccn3)CC2)c1C(=O)c1ccc(Cl)cc1 | 9 | 3 | 25 | 69 | 0 | 0 | 0 | 1.1 | 1450 | 2.8 | 1.7 | 3320 | 1 |  |  |
| Nc1scc(CN2CCN(c3ccc(C(F)(F)F)cc3)CC2)c1C(=O)c1ccc(Cl)cc1 | 10 | 53 | 84 | 87 | 0 | 0 | 15 | 1 | 3990 | 7.7 | 1.9 | 3680 | 1.1 |  |  |
